# Reference: patent publication US11407768B2, “AMPK activators” (Kallyope, Inc., priority 2020, dated 2022)
# Target: Recombinant AMPK α1/β1/γ1 complex (Homo sapiens (Human), UniProt Q13131+Q9Y478)
# Assay: In vitro pAMPK1 kinase activation assay (ADP-Glo, SAMS peptide)
# Type: biochemical
# Settings: AMPK α1/β1/γ1 pre-activated with CAMKK2; 12-point curve; 15 min compound incubation
# Experimental: Compound effect on AMPK enzyme activation was determined in a cell-free format with a 12-point concentration curve. The ADP-Glo detection system was used to determine phosphorylation of a SAMS peptide substrate. Recombinant AMPK α1/β1/γ1 complex was pre-activated by phosphorylation with CAMKK2 followed by incubated with compound for 15 minutes prior to the SAMS phosphorylation reaction. Activity curves and EC50 values were fitted by interpolation to an ATP:ADP standard curve as indicated by the ADP-Glo manufacturer using Prism software.
# Chain of Recombinant AMPK α1/β1/γ1 complex (Q13131 whole entry): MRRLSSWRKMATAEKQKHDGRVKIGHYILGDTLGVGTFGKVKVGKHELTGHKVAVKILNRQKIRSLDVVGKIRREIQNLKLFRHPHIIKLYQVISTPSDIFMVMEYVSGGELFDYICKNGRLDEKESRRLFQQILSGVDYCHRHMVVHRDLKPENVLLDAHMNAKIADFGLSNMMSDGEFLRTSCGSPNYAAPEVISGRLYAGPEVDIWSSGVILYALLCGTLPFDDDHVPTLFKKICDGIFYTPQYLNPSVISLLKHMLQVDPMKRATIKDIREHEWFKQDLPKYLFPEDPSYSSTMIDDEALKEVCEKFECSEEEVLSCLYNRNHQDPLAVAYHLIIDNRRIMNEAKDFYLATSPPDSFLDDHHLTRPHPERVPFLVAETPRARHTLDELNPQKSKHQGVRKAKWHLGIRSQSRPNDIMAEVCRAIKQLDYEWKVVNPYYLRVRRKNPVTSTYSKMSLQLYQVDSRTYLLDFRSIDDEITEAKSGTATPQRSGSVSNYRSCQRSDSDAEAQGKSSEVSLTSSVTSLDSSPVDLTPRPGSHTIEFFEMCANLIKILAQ
# Chain of Recombinant AMPK α1/β1/γ1 complex (Q9Y478 whole entry): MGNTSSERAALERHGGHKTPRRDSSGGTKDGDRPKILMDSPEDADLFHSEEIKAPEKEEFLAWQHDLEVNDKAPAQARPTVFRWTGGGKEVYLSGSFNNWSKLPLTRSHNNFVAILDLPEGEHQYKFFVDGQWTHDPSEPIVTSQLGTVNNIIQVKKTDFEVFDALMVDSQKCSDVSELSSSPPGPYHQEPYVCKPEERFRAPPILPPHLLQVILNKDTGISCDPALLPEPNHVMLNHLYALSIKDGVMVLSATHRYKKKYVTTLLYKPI
# Chain of Recombinant AMPK α1/β1/γ1 complex (P54619 whole entry partner): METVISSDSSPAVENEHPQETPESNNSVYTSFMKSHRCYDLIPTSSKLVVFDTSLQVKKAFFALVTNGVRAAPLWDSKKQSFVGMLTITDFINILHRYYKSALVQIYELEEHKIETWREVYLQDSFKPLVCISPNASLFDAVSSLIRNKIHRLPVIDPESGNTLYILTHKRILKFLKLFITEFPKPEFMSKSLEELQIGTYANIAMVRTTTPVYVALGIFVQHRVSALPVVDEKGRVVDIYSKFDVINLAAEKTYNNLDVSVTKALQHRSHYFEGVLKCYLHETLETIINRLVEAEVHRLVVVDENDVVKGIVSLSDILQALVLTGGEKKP
row,Compound,EC50 [nM]
1,"O=C(NCCCP(=O)(O)O)c1ccc(-c2ccc(-c3nc4nc(O[C@@H]5CO[C@H]6[C@@H]5OC[C@H]6O)[nH]c4cc3Cl)cc2)cc1 [Compound 14, (3-(4′-(6-chloro-2-(((3R,3aR,6R,6aR)-6-hydroxyhexahydrofuro[3,2-b]furan-3-yl)oxy)-1H-imidazo[4,5-b]pyridin-5-yl)-[1,1′-biphenyl]-4-carboxamido)propyl)phosphonic acid]",0.5
2,"O=C(NCC(CS(=O)(=O)O)c1ccc(Cl)cc1)c1ccc(-c2ccc(-c3nc4nc(O[C@@H]5CO[C@H]6[C@@H]5OC[C@H]6O)[nH]c4cc3Cl)cc2)cc1 (stereo partly drawn) [Compound 7, 3-(4′-(6-chloro-2-(((3R,3aR,6R,6aR)-6-hydroxyhexahydrofuro[3,2-b]furan-3-yl)oxy)-1H-imidazo[4,5-b]pyridin-5-yl)-[1,1′-biphenyl]-4-carboxamido)-2-(4-chlorophenyl)propane-1-sulfonic acid]",1.22
3,OCCOCC1CN(Cc2ccc(-c3ccc(-c4cc5nc(O[C@@H]6CO[C@H]7[C@@H]6OC[C@H]7O)[nH]c5cc4Cl)cc3)cc2)C1 [Compound 50],1.46
4,"O=C(NCCCS(=O)(=O)O)c1ccc(-c2ccc(-c3nc4nc(O[C@@H]5CO[C@H]6[C@@H]5OC[C@H]6O)[nH]c4cc3Cl)cc2)cc1 [Compound 6, 3-(4′-(6-chloro-2-(((3R,3aR,6R,6aR)-6-hydroxyhexahydrofuro[3,2-b]furan-3-yl)oxy)-1H-imidazo[4,5-b]pyridin-5-yl)-[1,1′-biphenyl]-4-carboxamido)propane-1-sulfonic acid]",0.62
5,"O=C(NC[C@H](O)[C@@H](O)[C@H](O)[C@H](O)CO)c1ccc(-c2ccc(-c3cc4nc(O[C@@H]5CO[C@H]6[C@@H]5OC[C@H]6O)[nH]c4cc3Cl)cc2)cc1 [Compound 30, 4′-(6-chloro-2-(((3R,3aR,6R,6aR)-6-hydroxyhexahydrofuro[3,2-b]furan-3-yl)oxy)-1H-benzo[d]imidazol-5-yl)-N-((2S,3R,4R,5R)-2,3,4,5,6-pentahydroxyhexyl)-[1,1′-biphenyl]-4-carboxamide]",0.65
6,"C[N+](C)(C)CCNC(=O)c1ccc(-c2ccc(-c3cc4nc(O[C@@H]5CO[C@H]6[C@@H]5OC[C@H]6O)[nH]c4cc3Cl)cc2)cc1 [Compound 29, 2-(4′-(6-chloro-2-(((3R,3aR,6R,6aR)-6-hydroxyhexahydrofuro[3,2-b]furan-3-yl)oxy)-1H-benzo [d]imidazol-5-yl)-[1,1′-biphenyl]-4-carboxamido)-N,N,N-trimethylethan-1-aminium bicarbonate]",0.56

# Results, then the molecule that gave them:
row,EC50 [nM],Compound
1,0.63,O=S(=O)(NC[C@H](O)[C@@H](O)[C@H](O)[C@H](O)CO)c1ccc(-c2ccc(-c3cc4nc(O[C@@H]5CO[C@H]6[C@@H]5OC[C@H]6O)[nH]c4cc3Cl)cc2)cc1 [Compound 71]
2,1.33,CC(NC[C@H](O)[C@@H](O)[C@H](O)[C@H](O)CO)c1ccc(-c2ccc(-c3nc4nc(O[C@@H]5CO[C@H]6[C@@H]5OC[C@H]6O)[nH]c4cc3Cl)cc2)cc1 (some centres unmarked) [Compound 73]
3,0.81,"OCC1(CO)CN(Cc2ccc(-c3ccc(-c4nc5nc(O[C@@H]6CO[C@H]7[C@@H]6OC[C@H]7O)[nH]c5cc4Cl)cc3)cc2)C1 [Compound 52, (1-((4′-(6-chloro-2-(((3R,3aR,6R,6aR)-6-hydroxyhexahydrofuro[3,2-b]furan-3-yl)oxy)-1H-imidazo[4,5-b]pyridin-5-yl)-[1,1′-biphenyl]-4-yl)methyl)azetidine-3,3-diyl)dimethanol]"
4,0.57,"OCC1(CO)CCN(Cc2ccc(-c3ccc(-c4nc5nc(O[C@@H]6CO[C@H]7[C@@H]6OC[C@H]7O)[nH]c5cc4Cl)cc3)cc2)CC1 [Compound 54, (1((4′-(6-chloro-2-(((3R,3aR,6R,6aR)-6-hydroxyhexahydrofuro[3,2-b]furan-3-yl)oxy)-1H-imidazo[4,5-b]pyridin-5-yl)-[1,1′-biphenyl]-4-yl)methyl)piperidine-4,4-diyl)dimethanol]"
5,1.38,CN(CCOCCO)S(=O)(=O)c1ccc(-c2ccc(-c3cc4nc(O[C@@H]5CO[C@H]6[C@@H]5OC[C@H]6O)[nH]c4cc3Cl)cc2)cc1 [Compound 72]
